Measurements from article PMC8039949, “A novel small-molecule PROTAC selectively promotes tau clearance to improve cognitive functions in Alzheimer-like models” (Theranostics, 2021).
Where two headings read alike, the source gives them in different places.

How the values were obtained:
tau [1] = target: T1, tau (UniProt P10636+P40338, P618L); test: Intracerebroventricular infusion in 3xTg-AD mice, brain tau by Western blotting and immunohistochemistry; assay type: in vivo, mouse; conditions: 9.5 m-old 3xTg-AD mice; intracerebroventricular 5 μL, 200 μM; 48 h
T1 construct: tissue stock number 34830; host or cells: hippocampus and cortex of 9.5 m-old 3xTg-AD mice
Description: For brain surgery and stereotaxic cerebroventricular drug delivery, the mice were placed in a stereotaxic apparatus and anesthetized with 2% isoflurane (RWD Life Science, R510-22) through a nose cone (300-500 mL/min, RWD Life Science, China, R500). The scalp was incised along the midline between the ears after the mice were sterilized with iodophors and 75% (vol/vol) alcohol. The holes were drilled stereotaxically in the skull at a cerebroventricular location (posterior 0.22 mm, lateral 0.9 mm, and ventral 2.3 mm relative to bregma). Using a microinjection system (Shenzhen RWD Life Technology Co., Ltd; RWD 69100), C004019 (5 μL, 200 μM) was infused at a rate of 0.5 μL/min. […]
(§1) The cells or hippocampal/cortex tissues were homogenized for ~ 30 min on ice in buffer [50 mM Tris·HCl pH 7.4-7.5, 100 mM NaCl, 1% (vol/vol) Triton X-100, 5 mM EDTA, 1:100 PMSF, 1:1,000 protease inhibitor cocktail containing 4-(2-Aminoethyl)-benzenesulfonyl fluoride hydrochloride, aprotinin, bestatin, leupeptin, E-64, and pepstatin A stored at 4 °C], and then centrifuged at 12,000 × g at 4 °C for 20 min. The supernatant was collected and the protein levels were analyzed using bicinchoninic acid (BCA, KF016, Sigma-Aldrich) by following the manufacturer's instruction (served as soluble protein). […] Immunoreactive bands were quantitatively analyzed by Image J2x software. […]

[2] = Pharmacokinetics study, plasma and brain concentration by LC-MS/MS; assay type: in vivo; conditions: male, mouse, sc, C57BL/6 mice, subcutaneous 3 mg/kg
Description: Male C57BL/6 mice (age of 6-8 weeks with bodyweight 21-23 g; N = 24) were purchased from JH Laboratory Animal Co. LTD. Subcutaneous injection dosing solution was prepared by diluting C004019 stock solution in 20% HP-β-CD in saline. The animals were administrated with C004019 at a dose of 3 mg/kg (10 mL/kg) via subcutaneous injection (N = 3 per timepoint), and then were anaesthetized via isoflurane at the designated time points, followed by collection of approximately 110 µL of blood sample into EDTA-2K tubes via retro-orbital puncture or cardiac puncture for terminal bleeding. The brain samples were collected at the designated time points after blood collection. All the samples were first maintained in wet ice and then the blood samples were centrifuged (2000 g, 4 °C, 5 min) to obtain plasma within 15 minutes post sampling. Afterwards, all the plasma samples and brain samples were stored at approximately -70 °C until analysis. The concentration of C004019 in plasma and brain was determined using liquid chromatograph mass spectrometry/mass spectrometry (LC-MS/MS) with a UPLC/MS-MS-015 (QTRAP 5500).

HEK293-hTau cells = test: CCK-8 cell viability assay; assay type: cell-based, human; conditions: 0.01, 0.1, 1, 10, 20 and 100 μM, 24 h
Description: Cell viability was assessed using CCK-8 kit by following the manufacturer's instructions. The cells were seeded at a concentration of 5,000 cells per well in a 96-well plate and then treated with various concentrations of C004019 (0, 0.01, 0.1, 1, 10, 20 and 100 μM) for 24 h. After the treatments, the culture medium was removed, and 10 μL of CCK-8 in 90 μL of medium was added. After incubating for 30 min at 37 °C, the absorbance was measured at 450 nm using a microplate reader (BioTek, 250058).

tau [3] = target: T1, tau; test: Multiple-doses subcutaneous administration in 3xTg-AD mice, brain tau; assay type: in vivo, mouse; conditions: 9.5 m-old 3xTg-AD mice, subcutaneous 3 mg/kg every 6 days, 5 times
Description: For brain surgery and stereotaxic cerebroventricular drug delivery, the mice were placed in a stereotaxic apparatus and anesthetized with 2% isoflurane (RWD Life Science, R510-22) through a nose cone (300-500 mL/min, RWD Life Science, China, R500). The scalp was incised along the midline between the ears after the mice were sterilized with iodophors and 75% (vol/vol) alcohol. The holes were drilled stereotaxically in the skull at a cerebroventricular location (posterior 0.22 mm, lateral 0.9 mm, and ventral 2.3 mm relative to bregma). Using a microinjection system (Shenzhen RWD Life Technology Co., Ltd; RWD 69100), C004019 (5 μL, 200 μM) was infused at a rate of 0.5 μL/min. The needle was kept in place for 10 min before withdrawal. After the skin was sutured, the mice were placed on a heater for analepsia. For subcutaneous injection, C004019 was diluted with 20% HP-β-CD and injected under the skin on the back neck to reach a final concentration of 3 mg/kg (low dose) or 15 mg/kg (high dose).
as §1, with “protein). The pellet was further incubated with 8% (wt/vol) SDS buffer at 4 °C and then treated by ultrasonic wave to reach a complete resuspension. The suspension was spun (18,000 × g, 4 °C for 20 min) and the supernatant collected (served as insoluble fraction). The supernatant of different faction was respectively mixed with loading buffer (3:1, vol/vol) containing 200 mM Tris-HCl, pH 6.8, 8% SDS, 40% glycerol, and boiled for 10 min.” for “protein).”

T1 sequence (P10636 1-383 isoform P10636-6 P243L): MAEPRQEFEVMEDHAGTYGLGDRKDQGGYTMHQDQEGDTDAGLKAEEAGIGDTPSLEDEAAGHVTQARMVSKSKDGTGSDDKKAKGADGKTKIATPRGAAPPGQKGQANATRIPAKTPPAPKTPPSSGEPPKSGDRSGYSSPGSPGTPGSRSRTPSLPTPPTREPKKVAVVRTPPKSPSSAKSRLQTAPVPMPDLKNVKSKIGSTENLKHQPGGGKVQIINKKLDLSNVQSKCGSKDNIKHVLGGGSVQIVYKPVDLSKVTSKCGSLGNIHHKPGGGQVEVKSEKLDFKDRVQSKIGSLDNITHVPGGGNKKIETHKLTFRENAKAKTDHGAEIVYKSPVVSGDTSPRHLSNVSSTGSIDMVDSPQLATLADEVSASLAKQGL
T1 sequence (P40338 whole entry, the tested form may be a part): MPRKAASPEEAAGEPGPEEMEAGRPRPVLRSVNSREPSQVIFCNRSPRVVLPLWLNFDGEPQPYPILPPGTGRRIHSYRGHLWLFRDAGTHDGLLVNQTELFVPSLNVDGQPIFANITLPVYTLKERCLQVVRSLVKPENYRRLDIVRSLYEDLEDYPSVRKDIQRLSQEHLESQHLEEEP
T1 sequence (P83940 whole entry partner, the tested form may be a part): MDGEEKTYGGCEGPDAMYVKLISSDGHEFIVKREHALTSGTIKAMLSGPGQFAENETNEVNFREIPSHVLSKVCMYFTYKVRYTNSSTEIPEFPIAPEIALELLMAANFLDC
T1 sequence (P62869 whole entry partner, the tested form may be a part): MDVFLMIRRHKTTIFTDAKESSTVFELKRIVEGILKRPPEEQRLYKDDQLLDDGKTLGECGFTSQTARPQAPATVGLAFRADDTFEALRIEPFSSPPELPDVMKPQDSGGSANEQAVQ

total tau and p-tau levels in hippocampus and cortex (tau [1]): reduced total tau and the p-tau levels | brain-to-plasma Cmax ratio ([2]; brain/plasma, read-out: ratio of brain tissue maximal concentration to the plasma maximal concentration (Kpuu value)): 0.00866 | AUC(0-inf) ([2]; brain, read-out: AUCINF in brain): 12.6 ng·h/mL | AUC(0-t) ([2]; brain, read-out: AUClast in brain): 8.42 ng·h/mL | Cmax ([2]; brain, read-out: Cmax in brain (maximal brain concentration)): 10.8 ng/mL | MRT inf ([2]; brain, read-out: MRTINF in brain): 1.8 h | half-life ([2]; brain, read-out: T1/2 in brain (converted)): 1.29 h | Tmax ([2]; brain, read-out: Tmax in brain): 0.167 h | AUC(0-inf) ([2]; plasma, read-out: AUCINF in plasma): 1800 ng·h/mL | AUC(0-t) ([2]; plasma, read-out: AUClast in plasma): 1190 ng·h/mL | Cmax ([2]; plasma, read-out: Cmax in plasma): 1250 ng/mL | MRT inf ([2]; plasma, read-out: MRTINF in plasma): 1.87 h | half-life ([2]; plasma, read-out: T1/2 in plasma (converted)): 1.33 h | Tmax ([2]; plasma, read-out: Tmax in plasma): 0.167 h | oligomer tau (T22-positive) in the soluble fraction (tau [3]; Western blotting): significantly reduced T22-positive tau
SMILES: CC(=O)N1CCCN(c2nc(NCCc3cccs3)nc(N(C)CC(=O)NCCOCCOCCOCC(=O)N[C@H](C(=O)N3C[C@H](O)C[C@H]3C(=O)NCc3ccc(-c4scnc4C)cc3)C(C)(C)C)n2)CC1 [C004019]
cell viability (CCK8 assay) (HEK293-hTau cells): did not induce any significant change in cell viability | p-tau and aggregated tau (pS404, AT8 immunohistochemistry, Thioflavin S staining) (tau [3]): Reduction of p-tau and aggregated tau proteins | soluble and insoluble tau levels in hippocampal and cortex extracts (tau [3]; Western blotting): remarkably reduced both soluble and insoluble tau levels
